Assay results from patent publication US20200216441A1, “PESTICIDALLY ACTIVE HETEROCYCLIC DERIVATIVES WITH SULFUR CONTAINING SUBSTITUENTS” (SYNGENTA PARTICIPATIONS AG, priority 2017, published 2020).

Tests used:
[1] = test system: Myzus persicae (Green Peach Aphid); test: whole plant or invertebrate; assay type: in vivo; conditions: 144 h, test rate of 24 ppm, systemic, roots of infested pea seedlings in test solution, 6 days
[2] = test system: Myzus persicae (Green Peach Aphid); test: whole plant or invertebrate; conditions: foliar, 144 h
[3] = test system: Spodoptera littoralis (Egyptian Cotton Leaf Worm); test: whole plant or invertebrate; conditions: in Gossypium barbadense, foliar, 72 h, read-out: control (mortality, anti-feeding effect, growth inhibition)
[4] = test system: Euschistus heros (Neotropical Brown Stink Bug); test: whole plant or invertebrate; assay type: in vivo; conditions: 120 h, application rate of 200 ppm, N2 nymphs on sprayed soybean leaves, 5 days after infestation, read-out: effect in at least one of the two categories (mortality or growth inhibition)
[5] = test system: Diabrotica Balteata (Corn Root Worm); test: Diabrotica balteata (Corn Root Worm); conditions: in Zea mays, 96 h, read-out: effect in at least one of the two categories (mortality or growth inhibition)
[6] = test system: Bemisia tabaci (Cotton White Fly); conditions: in Gossypium hirsutum, foliar, 144 h
[7] = test system: Plutella xylostella (Diamond Back Moth); test: whole plant or invertebrate; assay type: in vivo; conditions: 120 h, application rate of 200 ppm, L2 larvae on treated artificial diet, 5 days after infestation, read-out: effect in at least one of the two categories (mortality or growth inhibition)

CCS(=O)(=O)c1cc(OCC(F)F)cnc1-c1nc2cc(C(F)(F)F)ncc2n1C [Compound P16, 2-[5-(2,2-difluoroethoxy)-3-ethylsulfonyl-2-pyridyl]-3-methyl-6-(trifluoromethyl)imidazo[4,5-c]pyridine]
≥ 80%: mortality at 24 ppm [1] | mortality at 200 ppm [2] | mortality at 200 ppm [3] | percent effect (mortality or growth inhibition) at 200 ppm [4] | mortality at 200 ppm [5] | mortality at 200 ppm [6] | percent effect (mortality or growth inhibition) at 200 ppm [7]

CCS(=O)(=O)c1cc(OCCCS(C)(=O)=O)cnc1-c1nc2cc(C(F)(F)F)ncc2n1C [Compound P52, 2-[3-ethylsulfonyl-5-(3-methylsulfonylpropoxy)-2-pyridyl]-3-methyl-6-(trifluoromethyl)imidazo[4,5-c]pyridine]
≥ 80%: mortality at 24 ppm [1] | mortality at 200 ppm [2] | percent effect (mortality or growth inhibition) at 200 ppm [4] | mortality at 200 ppm [6]

CCS(=O)(=O)c1cc(OCCCSC)cnc1-c1nc2cc(C(F)(F)F)ncc2n1C [Compound P56, 2-[3-ethylsulfonyl-5-(3-methylsulfanylpropoxy)-2-pyridyl]-3-methyl-6-(trifluoromethyl)imidazo[4,5-c]pyridine]
≥ 80%: mortality at 24 ppm [1] | mortality at 200 ppm [2] | percent effect (mortality or growth inhibition) at 200 ppm [4] | mortality at 200 ppm [5] | mortality at 200 ppm [6]

CCSc1cc(OC(C)(C)C)cnc1-c1nc2cc(C(F)(F)F)ncc2n1C [Compound P3, 2-(5-tert-butoxy-3-ethylsulfanyl-2-pyridyl)-3-methyl-6-(trifluoromethyl)imidazo[4,5-c]pyridine]
≥ 80%: mortality at 200 ppm [2] | percent effect (mortality or growth inhibition) at 200 ppm [4] | mortality at 200 ppm [5] | mortality at 200 ppm [6] | percent effect (mortality or growth inhibition) at 200 ppm [7]

CCS(=O)(=O)c1cc(OC2CC(F)(F)C2)cnc1-c1nc2cc(C(F)(F)F)ncc2n1C [Compound P42, 2-[5-(3,3-difluorocyclobutoxy)-3-ethylsulfonyl-2-pyridyl]-3-methyl-6-(trifluoromethyl)imidazo[4,5-c]pyridine]
≥ 80%: mortality at 24 ppm [1] | mortality at 200 ppm [2] | mortality at 200 ppm [3] | percent effect (mortality or growth inhibition) at 200 ppm [4] | mortality at 200 ppm [5] | mortality at 200 ppm [6] | percent effect (mortality or growth inhibition) at 200 ppm [7]

CCS(=O)(=O)c1cc(OCS(C)(=O)=O)ccc1-c1nc2cc(C(F)(F)F)ncc2n1C [Compound P105, 2-[2-ethylsulfonyl-4-(methylsulfonylmethoxy)phenyl]-3-methyl-6-(trifluoromethyl)imidazo[4,5-c]pyridine]
≥ 80%: mortality at 24 ppm [1] | mortality at 200 ppm [2] | percent effect (mortality or growth inhibition) at 200 ppm [4] | mortality at 200 ppm [5] | mortality at 200 ppm [6]

CCS(=O)(=O)c1cc(OCC(C)C)cnc1-c1nc2cc(C(F)(F)F)ncc2n1C [Compound P75, 2-(3-ethylsulfonyl-5-isobutoxy-2-pyridyl)-3-methyl-6-(trifluoromethyl)imidazo[4,5-c]pyridine]
≥ 80%: mortality at 24 ppm [1] | mortality at 200 ppm [2] | mortality at 200 ppm [3] | percent effect (mortality or growth inhibition) at 200 ppm [4] | mortality at 200 ppm [5] | mortality at 200 ppm [6] | percent effect (mortality or growth inhibition) at 200 ppm [7]

CCS(=O)(=O)c1cc(OCCSC)cnc1-c1nc2cc(C(F)(F)F)ncc2n1C [Compound P11, 2-[3-ethylsulfonyl-5-(2-methylsulfanylethoxy)-2-pyridyl]-3-methyl-6-(trifluoromethyl)imidazo[4,5-c]pyridine]
≥ 80%: mortality at 24 ppm [1] | mortality at 200 ppm [2] | mortality at 200 ppm [3] | percent effect (mortality or growth inhibition) at 200 ppm [4] | mortality at 200 ppm [6]

CCS(=O)(=O)c1cc(OCSC)ccc1-c1nc2cc(C(F)(F)F)ncc2n1C [Compound P106, 2-[2-ethylsulfonyl-4-(methylsulfanylmethoxy)phenyl]-3-methyl-6-(trifluoromethyl)imidazo[4,5-c]pyridine]
≥ 80%: mortality at 24 ppm [1] | mortality at 200 ppm [2] | percent effect (mortality or growth inhibition) at 200 ppm [4] | mortality at 200 ppm [5] | mortality at 200 ppm [6]

CCS(=O)(=O)c1cc(OCC2CC2(F)F)cnc1-c1nc2cc(C(F)(F)F)ncc2n1C (stereo not drawn) [Compound P67, 2-[5-[(2,2-difluorocyclopropyl)methoxy]-3-ethylsulfonyl-2-pyridyl]-3-methyl-6-(trifluoromethyl)imidazo[4,5-c]pyridine]
≥ 80%: mortality at 200 ppm [2] | mortality at 200 ppm [3] | percent effect (mortality or growth inhibition) at 200 ppm [4] | mortality at 200 ppm [5] | mortality at 200 ppm [6] | percent effect (mortality or growth inhibition) at 200 ppm [7]

CCS(=O)(=O)c1cc(OCC(C)(C)C)cnc1-c1nc2cc(C(F)(F)F)ncc2n1C [Compound P26, 2-[5-(2,2-dimethylpropoxy)-3-ethylsulfonyl-2-pyridyl]-3-methyl-6-(trifluoromethyl)imidazo[4,5-c]pyridine]
≥ 80%: mortality at 200 ppm [2] | mortality at 200 ppm [3] | mortality at 200 ppm [5] | mortality at 200 ppm [6] | percent effect (mortality or growth inhibition) at 200 ppm [7]

CCS(=O)(=O)c1cc(O[C@H]2C[C@@H](C#N)C2)cnc1-c1nc2cc(C(F)(F)F)ncc2n1C [Compound P46, 3-[[5-ethylsulfonyl-6-[3-methyl-6-(trifluoromethyl)imidazo[4,5-c]pyridin-2-yl]-3-pyridyl]oxy]cyclobutanecarbonitrile]
≥ 80%: mortality at 24 ppm [1] | mortality at 200 ppm [2] | percent effect (mortality or growth inhibition) at 200 ppm [4] | mortality at 200 ppm [5] | mortality at 200 ppm [6] | percent effect (mortality or growth inhibition) at 200 ppm [7]

CCS(=O)(=O)c1cc(OC(C)C#N)cnc1-c1nc2cc(C(F)(F)F)ncc2n1C (stereo not drawn) [Compound P22, 2-[[5-ethylsulfonyl-6-[3-methyl-6-(trifluoromethyl)imidazo[4,5-c]pyridin-2-yl]-3-pyridyl]oxy]propanenitrile]
≥ 80%: mortality at 24 ppm [1] | mortality at 200 ppm [2] | mortality at 200 ppm [3] | percent effect (mortality or growth inhibition) at 200 ppm [4] | mortality at 200 ppm [5] | percent effect (mortality or growth inhibition) at 200 ppm [7]

CCS(=O)(=O)c1cc(OC(C)(C)CSC)cnc1-c1nc2cc(C(F)(F)F)ncc2n1C [Compound P50, 2-[5-(1,1-dimethyl-2-methylsulfanyl-ethoxy)-3-ethylsulfonyl-2-pyridyl]-3-methyl-6-(trifluoromethyl)imidazo[4,5-c]pyridine]
≥ 80%: mortality at 24 ppm [1] | mortality at 200 ppm [2] | percent effect (mortality or growth inhibition) at 200 ppm [4] | mortality at 200 ppm [5] | mortality at 200 ppm [6] | percent effect (mortality or growth inhibition) at 200 ppm [7]

CCC(C#N)(CC)Oc1cnc(-c2nc3cc(C(F)(F)F)ncc3n2C)c(S(=O)(=O)CC)c1 [Compound P44, 2-ethyl-2-[[5-ethylsulfonyl-6-[3-methyl-6-(trifluoromethyl)imidazo[4,5-c]pyridin-2-yl]-3-pyridyl]oxy]butanenitrile]
≥ 80%: percent effect (mortality or growth inhibition) at 200 ppm [4] | mortality at 200 ppm [6]

CCS(=O)(=O)c1cc(OCS(C)(=O)=O)cnc1-c1nc2cc(C(F)(F)F)ncc2n1C [Compound P9, 2-[3-ethylsulfonyl-5-(methylsulfonylmethoxy)-2-pyridyl]-3-methyl-6-(trifluoromethyl)imidazo[4,5-c]pyridine]
≥ 80%: mortality at 24 ppm [1] | mortality at 200 ppm [2] | percent effect (mortality or growth inhibition) at 200 ppm [4] | mortality at 200 ppm [5] | mortality at 200 ppm [6]

CCS(=O)(=O)c1cc(OC[Si](C)(C)C)cnc1-c1nc2cc(C(F)(F)F)ncc2n1C [Compound P61, [5-ethylsulfonyl-6-[3-methyl-6-(trifluoromethyl)imidazo[4,5-c]pyridin-2-yl]-3-pyridyl]oxymethyl-trimethyl-silane]
≥ 80%: mortality at 200 ppm [2] | mortality at 200 ppm [3] | mortality at 200 ppm [5] | mortality at 200 ppm [6]

CCS(=O)(=O)c1cc(OC(C)(C)C(N)=O)cnc1-c1nc2cc(C(F)(F)F)ncc2n1C [Compound P89, 2-[[5-ethylsulfonyl-6-[3-methyl-6-(trifluoromethyl)imidazo[4,5-c]pyridin-2-yl]-3-pyridyl]oxy]-2-methyl-propanamide]
≥ 80%: mortality at 24 ppm [1] | mortality at 200 ppm [2] | percent effect (mortality or growth inhibition) at 200 ppm [4] | mortality at 200 ppm [5] | mortality at 200 ppm [6] | percent effect (mortality or growth inhibition) at 200 ppm [7]

CCS(=O)(=O)c1cc(OCCCC#N)cnc1-c1nc2cc(C(F)(F)F)ncc2n1C [Compound P70, 4-[[5-ethylsulfonyl-6-[3-methyl-6-(trifluoromethyl)imidazo[4,5-c]pyridin-2-yl]-3-pyridyl]oxy]butanenitrile]
≥ 80%: mortality at 24 ppm [1] | mortality at 200 ppm [2] | mortality at 200 ppm [3] | percent effect (mortality or growth inhibition) at 200 ppm [4] | mortality at 200 ppm [6] | percent effect (mortality or growth inhibition) at 200 ppm [7]
